Source: ChEMBL document CHEMBL5528028, “Discovery of benzopyridone cyanoacetates as new type of potential broad-spectrum antibacterial candidates” (Eur J Med Chem, 2024)
≈ marks a conversion by molar mass, not a printed value.

Tests used:
Format in all cases: functional
Escherichia coli [1] = assay: Antibacterial activity against Escherichia coli ATCC 25922 assessed growth inhibition by micro broth dilution method
Pseudomonas aeruginosa [2] = assay: Antibacterial activity against Pseudomonas aeruginosa assessed growth inhibition by micro broth dilution method
Pseudomonas aeruginosa [3] = assay: Antibacterial activity against Pseudomonas aeruginosa ATCC 27853 assessed growth inhibition by micro broth dilution method
Staphylococcus aureus [4] = assay: Antibacterial activity against Staphylococcus aureus ATCC 29213 assessed growth inhibition by micro broth dilution method
Escherichia coli [5] = assay: Antibacterial activity against Escherichia coli assessed growth inhibition by micro broth dilution method
Acinetobacter baumannii = assay: Antibacterial activity against Acinetobacter baumannii assessed growth inhibition by micro broth dilution method
Staphylococcus aureus [6] = assay: Antibacterial activity against Staphylococcus aureus ATCC 25923 assessed growth inhibition by micro broth dilution method
Enterococcus faecalis = assay: Antibacterial activity against Enterococcus faecalis assessed growth inhibition by micro broth dilution method
Klebsiella pneumoniae = assay: Antibacterial activity against Klebsiella pneumonia assessed growth inhibition by micro broth dilution method
Staphylococcus aureus [7] = assay: Antibacterial activity against methicillin-resistant Staphylococcus aureus assessed growth inhibition by micro broth dilution method
Staphylococcus aureus [8] = assay: Antibacterial activity against Staphylococcus aureus assessed growth inhibition by micro broth dilution method

Row | Compound | MIC (Escherichia coli [1]) [µg/mL] | MIC (Pseudomonas aeruginosa [2]) [µg/mL] | MIC (Pseudomonas aeruginosa [3]) [µg/mL] | MIC (Staphylococcus aureus [4]) [µg/mL] | MIC (Escherichia coli [5]) [µg/mL] | MIC (Acinetobacter baumannii) [µg/mL] | MIC (Staphylococcus aureus [6]) [µg/mL] | MIC (Enterococcus faecalis) [µg/mL] | MIC (Klebsiella pneumoniae) [µg/mL] | MIC (Staphylococcus aureus [7]) [µg/mL] | MIC (Staphylococcus aureus [8]) [µg/mL]
1 | CCOC(=O)c1cn(CC2CC2)c2cc([C-](C#N)C(=O)OCC)c(F)cc2c1=O.[Na+] (centres undefined) | 4 | 16 | 8 | 16 | 16 | 16 | 4 | 64 | 16 | 64 | 64
2 | CCOC(=O)c1cn(Cc2ccccc2Cl)c2cc([C-](C#N)C(=O)OCC)c(F)cc2c1=O.[Na+] (centres undefined) | 2 | 16 | 2 | 2 | 0.25 | 32 | 0.5 | 1 | 4 | 64 | 256
3 | CCOC(=O)c1cn(CC)c2c(F)c([C-](C#N)C(=O)OCC)c(F)cc2c1=O.[Na+] (centres undefined) | 1 | 64 | 16 | 16 | 64 | 32 | 16 | 32 | 16 | 32 | 16
4 | CCOC(=O)c1cn(Cc2ccc(Cl)c(Cl)c2)c2cc(F)c(F)cc2c1=O | 2 (≈ 4.85 µM) | 32 (≈ 77.6 µM) | 64 (≈ 155 µM) | 256 (≈ 621 µM) | 8 (≈ 19.4 µM) | 256 (≈ 621 µM) | 256 (≈ 621 µM) | 128 (≈ 311 µM) | 0.5 (≈ 1.21 µM) | 256 (≈ 621 µM) | 16 (≈ 38.8 µM)
5 | CCOC(=O)c1cn(Cc2ccc([N+](=O)[O-])cc2)c2cc(C(C#N)C(=O)OCC)c(F)cc2c1=O.[Na+] (centres undefined) | 128 | 128 | 64 | 64 | 0.5 | 128 | 1 | 32 | 128 | 256 | 128
6 | CCOC(=O)c1cn(CC2CCCCC2)c2cc(F)c(F)cc2c1=O | 128 (≈ 366 µM) | 64 (≈ 183 µM) | 256 (≈ 733 µM) | 64 (≈ 183 µM) | 4 (≈ 11.4 µM) | 256 (≈ 733 µM) | 2 (≈ 5.72 µM) | 128 (≈ 366 µM) | 8 (≈ 22.9 µM) | 128 (≈ 366 µM) | 16 (≈ 45.8 µM)
7 | CCOC(=O)c1cn(Cc2ccccc2)c2cc(C(C#N)C(=O)OCC)c(F)cc2c1=O (centres undefined) | 16 (≈ 36.7 µM) | 0.5 (≈ 1.15 µM) | 2 (≈ 4.58 µM) | 2 (≈ 4.58 µM) | 32 (≈ 73.3 µM) | 8 (≈ 18.3 µM) | 2 (≈ 4.58 µM) | 16 (≈ 36.7 µM) | 2 (≈ 4.58 µM) | 32 (≈ 73.3 µM) | 8 (≈ 18.3 µM)
8 | CCOC(=O)C(C#N)c1c(F)cc2c(=O)c(C(=O)O)cn3c2c1OC[C@@H]3C (some centres undefined) | 1 (≈ 2.67 µM) | 16 (≈ 42.7 µM) | 8 (≈ 21.4 µM) | 4 (≈ 10.7 µM) | 32 (≈ 85.5 µM) | 1 (≈ 2.67 µM) | 32 (≈ 85.5 µM) | 128 (≈ 342 µM) | 8 (≈ 21.4 µM) | 4 (≈ 10.7 µM) | 4 (≈ 10.7 µM)
9 | CCOC(=O)C(C#N)c1cc2c(cc1F)c(=O)c(C(=O)O)cn2Cc1ccc(F)cc1F (centres undefined) | 0.5 (≈ 1.13 µM) | 16 (≈ 36 µM) | 2 (≈ 4.5 µM) | 4 (≈ 9 µM) | 16 (≈ 36 µM) | 2 (≈ 4.5 µM) | 1 (≈ 2.25 µM) | 8 (≈ 18 µM) | 0.5 (≈ 1.13 µM) | 8 (≈ 18 µM) | 4 (≈ 9 µM)
10 | CCOC(=O)c1cn(Cc2ccc(F)cc2F)c2cc(C(C#N)C(=O)OCC)c(F)cc2c1=O (centres undefined) | 16 (≈ 33.9 µM) | 2 (≈ 4.23 µM) | 4 (≈ 8.47 µM) | 4 (≈ 8.47 µM) | 16 (≈ 33.9 µM) | 32 (≈ 67.7 µM) | 4 (≈ 8.47 µM) | 16 (≈ 33.9 µM) | 4 (≈ 8.47 µM) | 32 (≈ 67.7 µM) | 8 (≈ 16.9 µM)
11 | CCCn1cc(C(=O)OCC)c(=O)c2cc(F)c(F)cc21 | 128 (≈ 433 µM) | 128 (≈ 433 µM) | 256 (≈ 867 µM) | 128 (≈ 433 µM) | 32 (≈ 108 µM) | 256 (≈ 867 µM) | 256 (≈ 867 µM) | 256 (≈ 867 µM) | 64 (≈ 217 µM) | 256 (≈ 867 µM) | 64 (≈ 217 µM)
12 | CCOC(=O)c1cn(Cc2cnc(Cl)s2)c2cc([C-](C#N)C(=O)OCC)c(F)cc2c1=O.[Na+] (centres undefined) | 8 | 64 | 2 | 8 | 4 | 16 | 4 | 4 | 32 | 4 | 32
13 | CCOC(=O)c1cn(CC)c2c(F)c(F)c(F)cc2c1=O | 64 (≈ 214 µM) | 32 (≈ 107 µM) | 256 (≈ 855 µM) | 128 (≈ 428 µM) | 8 (≈ 26.7 µM) | 32 (≈ 107 µM) | 64 (≈ 214 µM) | 128 (≈ 428 µM) | 32 (≈ 107 µM) | 128 (≈ 428 µM) | 32 (≈ 107 µM)
14 | CCOC(=O)c1cn(Cc2ccc(F)cc2F)c2cc([C-](C#N)C(=O)OCC)c(F)cc2c1=O.[Na+] (centres undefined) | 2 | 64 | 2 | 4 | 1 | 32 | 0.5 | 8 | 4 | 64 | 128
15 | CCOC(=O)c1cn(Cc2ccccn2)c2cc([C-](C#N)C(=O)OCC)c(F)cc2c1=O.[Na+] (centres undefined) | 128 | 128 | 128 | 256 | 256 | 256 | 256 | 256 | 256 | 256 | 256
16 | CCOC(=O)c1cn(CC2CCCCC2)c2cc(C(C#N)C(=O)OCC)c(F)cc2c1=O (centres undefined) | 0.5 (≈ 1.13 µM) | 1 (≈ 2.26 µM) | 1 (≈ 2.26 µM) | 4 (≈ 9.04 µM) | 4 (≈ 9.04 µM) | 4 (≈ 9.04 µM) | 1 (≈ 2.26 µM) | 16 (≈ 36.2 µM) | 4 (≈ 9.04 µM) | 64 (≈ 145 µM) | 64 (≈ 145 µM)
17 | CCOC(=O)c1cn(CCN2CCOCC2)c2cc([C-](C#N)C(=O)OCC)c(F)cc2c1=O.[Na+] (centres undefined) | 256 | 256 | 256 | 256 | 256 | 256 | 256 | 256 | 256 | 256 | 256
18 | CCCn1cc(C(=O)OCC)c(=O)c2cc(F)c([C-](C#N)C(=O)OCC)cc21.[Na+] (centres undefined) | 4 | 8 | 8 | 16 | 16 | 16 | 2 | 16 | 16 | 64 | 128
19 | CCOC(=O)c1cn(Cc2ccc(Cl)cc2Cl)c2cc(F)c(F)cc2c1=O | 32 (≈ 77.6 µM) | 128 (≈ 311 µM) | 256 (≈ 621 µM) | 256 (≈ 621 µM) | 16 (≈ 38.8 µM) | 256 (≈ 621 µM) | 256 (≈ 621 µM) | 256 (≈ 621 µM) | 0.5 (≈ 1.21 µM) | 256 (≈ 621 µM) | 128 (≈ 311 µM)
